# Measured values taken from patent US5283243A, “Piperidinoalkylbenzoxazine and piperidinoalkylbenzothiazine compounds, and medicaments containing them” (Kali-Chemie Pharma GmbH, priority 1990, dated 1994).
# Like-named read-outs stand apart in the source and are kept apart here.
# Tests used:
# [1] = system: Passive cutaneous anaphylaxis (PCA); experiment: Inhibition of passive cutaneous anaphylaxis (PCA); format: in vivo, Sprague-Dawley rats; conditions: Rattus norvegicus, 1 h, read-out: % inhibition of Passive cutaneous anaphylaxis (PCA)
# Procedure: (§1) 1. Determining Inhibition of Passive Cutaneous Anaphylaxis (PCA) and Histamine-Induced Anaphylactoid Cutaneous Reaction
# The PCA reaction is carried out following the methods described by Goose et al. (J.N. Immunology 16 (1969), 749) and by Martin et al. (Arch. Pharmacol. 316 (1981), 186).
# The IgE-rich ovalbumin antiserum used in the test was obtained from immunized Brown-Norway rats. The were immunized with an intraperitoneal injection of a mixture of 100 μg of ovalbumin with a Bordetella pertussis suspension (Vaxicoq™, Manufactured by Institute Merieux, containing 5×10^9 organisms and 1.25 mg Al(OH)3). After 20 days the animals were re-immunized with a further intraperitoneal injection of a solution of 10 μg ovalbumin in 0.5 ml physiological saline solution. After a further four days the blood was removed from the animals and centrifuged. The resulting antiserum was stored at -20° C. until use.
# (§2) The inhibition of the passive cutaneous anaphylaxis and of the anaphylactoid cutaneous reaction induced by histamine was determined as follows:
# Sprague-Dawley rats having a body weight of 150-180 g were injected intradermally in one flank with 50 μl of a 1:75 dilution of the IgE-rich ovalbumin antiserum in physiological saline solution to passively sensitize them to ovalbumin.
# 24 hours after sensitization a solution of 8.25 mg/kg of ovalbumin and 26.4 mg/kg of a blue dye (Evans's Blue) was administered to the rats intravenously according to Martin et al. to trigger passive cutaneous anaphylaxis.
# (§3) On the day of the experiment the test substances were dissolved in distilled water which contained 1 vol. % dimethylformamide and 1 vol. % of Tween™ 20 (=polyoxyethylene (20) sorbitan monolaurate). One hour before administration of the ovalbumin challenge, each animal was orally administered 2×10^-5 mole/kg of test substance in 0.5 ml of solution. For comparison purposes a control group received only the solvent.
# (§4) The edematous anaphylactic (PCA) and anaphylactoid (histamine-induced) reactions caused by the stimulation of the intravenous ovalbumin injection, which manifested themselves by edema formation, swelling and exudation of blue dye, were evaluated 30 minutes after their initiation by the intravenous ovalbumin injection. This was done by visually determining the extent to which the blue dye emerged at the sites of edema formation. The percentage inhibition of anaphylactic and anaphylactoid reactions induced by the test substances in comparison with the reactions of the control animals not treated with any test substance was determined using comparison scales.
# (§5) The results obtained using compounds of formula I according to the foregoing test methods are shown in the following Table A. The example numbers given for the compounds of formula I relate to the subsequent preparative examples.
# [2] = system: Histamine-induced anaphylactoid reaction; experiment: Inhibition of histamine-induced anaphylactoid cutaneous reaction; format: in vivo, Sprague-Dawley rats; conditions: Rattus norvegicus, 1 h, read-out: % inhibition of Histamine-induced anaphylactoid reaction
# Procedure: as §1, §2
# To determine the histamine-induced anaphylactoid skin reaction, the animals are injected intradermally in the flank opposite to the antiserum administration with 50 μl of a physiological saline solution containing 0.8 mg/ml histamine directly before the intravenous injection of the solution containing the ovalbumin and the blue dye.
# as §3, §4, §5
# mice = experiment: Determination of minimum toxic dose; format: in vivo; conditions: mouse, per os; lowest dose producing death or severe toxic symptoms, maximum dose 300 mg/kg, 24 hours
# Procedure: 2. Determination of Minimum Toxic Dose
# Maximum doses of 300 mg/kg of the test substance were administered orally to male mice weighing 20-25 g. The animals were observed carefully for 3 hours for toxicity symptoms. In addition, all symptoms and deaths were recorded over a period of 24 hours after administration. Associated symptoms were also observed and recorded. If death or severe toxic symptoms were observed, additional mice were administered increasingly lower doses. The lowest dose which produced death or severe toxic symptoms is given in the following Table B as the minimum toxic dose.
# [3] = system: cyclooxygenase (6-keto-PGF1α release); experiment: Cyclooxygenase inhibition: 6-keto-PGF1α release from zymosan-stimulated mouse peritoneal macrophage cells; format: cell-based; conditions: Peritoneal macrophage cell; zymosan-stimulated mouse peritoneal macrophage cells, 10^-5 mole/l; read-out: In vitro % inhibition upon release of 6-keto-PGF1α
# Text: (§6) 5. In vitro Determination of Cyclooxygenase Inhibition and 5-Lipoxygenase Inhibition
# (§7) After a cell is activated, arachidonic acid contained in cell membranes is metabolized in two ways. Leucotrienes, inter alia leucotriene C4, are formed due to the action of the enzyme 5-lipoxyqenase (=5-LO), and prostanoids are formed due to the action of the enzyme cyclooxygenase (=CO). In in vitro systems these metabolites are secreted from the cell.
# (§8) To evaluate the cyclooxygenase-inhibiting and 5-lipoxygenase-inhibiting properties of the test substances, their inhibitory activity on the biosynthesis of the arachidonic acid derivatives leucotriene C4 (=LTC4) and 6-keto-prostaglandin F1α (=6-keto-PGF1 α) was determined in vitro on mouse peritoneal macrophage cells. For this purpose the LTC4 and 6-keto-PGF1 α contents of a mouse peritoneal macrophage cell culture medium were determined by zymosan stimulation as described by Scott et al. (J. Exp. Med. 152 (1980), 324-335) and by Fradin et al., (Prostaglandins, 33 (1987), 579-589).
# (§9) A cell suspension containing peritoneal cells from male mice 8-10 weeks old was obtained in a known manner. A solution marketed under the designation RPMI 1640 (Manufactured by Gibco) was used as the cell culture medium, to which heparin (10 international units/ml) and antibiotics were added according to the procedure of Bonney et al. (Biochem. J. 176 (1978) 422-433). The cell suspension was adjusted to a cell concentration of 10^6 cells per ml and distributed uniformly on titer dishes containing 24 1-ml titer cells (wells). These were kept for two hours in a humidified incubator filled with air enriched with 7% CO2. Cells not adhering to the titer well walls were then removed by washing. The remaining macrophage cells adhering to the walls were incubated for about 12 hours in a suspension medium to which 0.1% of bovine serum albumin (BSA=Bovine Serum Albumin) was added. The suspension medium was then replaced by a Hanks salt solution (=Hanks Balanced Salt Solution=HBSS) with 10 mmoles of Hepes (=hydroxyethylpiperazinoethanesulfonic acid) to which a 0.1% strength solution of the test substances in aqueous, 1% strength dimethylformamide or only the solvent had been added. After 15 minutes the arachidonic acid metabolism was stimulated by adding […] of zymosan (=glycoprotein mixture isolated from cell walls of beer yeast, Saccharomyces cerevisiae, Manufactured by Sigma Chemical Co., Munich) per titre cell. After 2 hours samples of the respective supernatant liquid in each cell were examined for their 6-keto-PGF1α and LTC4 contents by an enzyme immunoassay (=EIA). This EIA is carried out following the method of Pradelles et al. (Analytical Chem. 57 (1985), 1170-1173). The determination of LTC4 and the determination of 6-keto-PGF1α were each carried out on suitable dilutions of the samples (1:50 to 1:250 for the LTC4 determination and 1:250 to 1:1,250 for the 6-keto-PGF1α determination) in comparison with a comparative scale. To determine the inhibiting effect of a 10^-5 molar concentration of the compounds, the amounts of reference eicosanoid were determined, and the inhibiting effect was calculated therefrom in % inhibition compared to the measurements of the zymosan controls.
# [4] = system: 5-lipoxygenase (LTC4 release); experiment: 5-Lipoxygenase inhibition: LTC4 release from zymosan-stimulated mouse peritoneal macrophage cells; format: cell-based; conditions: Peritoneal macrophage cell; zymosan-stimulated mouse peritoneal macrophage cells, 10^-5 mole/l; read-out: In vitro % inhibition upon release of LTC4
# Text: as §6, §7, §8, §9
# histamine-(H1)-receptor = biological target: T1, histamine-(H1)-receptor (Cavia porcellus, UniProt P31389); experiment: Anti-histamine-(H1) effect, inhibition of histamine-induced contraction of isolated guinea pig ileum in vitro; format: cell-based, Dunkin Hartley guinea pigs; conditions: histamine 5 × 10^-6 mole/l, test substance 10^-6 mole/l
# T1 construct: Segments of the ileum 1.5 cm long from Dunkin Hartley guinea pigs; from tissue; host or cells: isolated ileum segments of Dunkin Hartley guinea pigs
# T1 sequence (P31389 whole entry): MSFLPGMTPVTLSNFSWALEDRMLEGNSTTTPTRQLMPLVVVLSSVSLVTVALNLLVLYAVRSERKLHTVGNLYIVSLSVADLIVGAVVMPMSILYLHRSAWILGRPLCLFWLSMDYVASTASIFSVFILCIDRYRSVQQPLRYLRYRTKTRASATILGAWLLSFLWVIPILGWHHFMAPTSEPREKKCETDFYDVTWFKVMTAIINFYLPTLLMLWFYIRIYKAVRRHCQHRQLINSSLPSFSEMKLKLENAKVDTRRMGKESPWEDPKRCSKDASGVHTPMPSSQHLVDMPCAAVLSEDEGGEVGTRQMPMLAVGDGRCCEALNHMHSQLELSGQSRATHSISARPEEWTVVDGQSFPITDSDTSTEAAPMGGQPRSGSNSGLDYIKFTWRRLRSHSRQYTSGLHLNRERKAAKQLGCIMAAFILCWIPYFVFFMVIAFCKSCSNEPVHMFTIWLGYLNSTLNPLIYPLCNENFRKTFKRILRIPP
# Procedure: 3. Investigation of Anti-Histamine-(H1) Effect Based on Histamine-(H1)-Receptor Antagonism In Vitro
# To investigate the histamine-(H1)-receptor antagonism of the test substances, the inhibiting effect of the substances on histamine-induced contractions of the smooth muscle was determined in vitro on the isolated organ. Isolated strips of organ from the ileum are suitable for this purpose. In an organ bath of physiological saline solution the smooth muscle strips react to the addition of histamine by contracting. […] The extent of regression of the contraction is an indication of the anti-histamine-(H1) activity of the compounds. The investigation was carried out analogously to the method originally described by Magnus (Pfluegers Arch. 102, 123 (1904)). Procedure for determining the smooth muscle contraction inhibiting effect on isolated guinea pig ileum induced by a 5×10^-6 molar histamine concentration.
# Segments of the ileum 1.5 cm long from Dunkin Hartley guinea pigs having a body weight of 300 500 g were used for the test. Each strip was placed in an organ bath of 10 ml of physiological saline solution according to Krebs-Henseleit and attached to a conventional apparatus for isotonic measurement of changes in length of the ileum strips (automated Celaster measuring apparatus), so that the tissue was under 1 g of tension. The bath was kept at a pH of 7.4 and gassed with a mixture of 5% CO2 and 95% 02. After an equilibration phase, an isotonic contraction of the tissue was induced by adding histamine in a final concentration of 5×10^-6 mole/liter and washing it out again after a contact time of 30 seconds. Only tissues samples from which three reproducible contractions were obtained at 10 minute intervals were used in the subsequent test. The test substances were then added in a final concentration of 10^-6 mole/liter, and after 30 seconds contact time histamine was again added up to a concentration of 5×10^-6 mole/liter. The resulting contractions were measured over 30 seconds. The tissue was then washed several times over a period of 10 minutes. Histamine was then added again to stimulate a contraction. The resulting contractions were again measured over 30 seconds. The difference between the amplitude of the contraction obtained by histamine addition alone and the amplitude of the contraction obtained in the presence of the test substance was determined and expressed in terms of % inhibition.
# The inhibiting effects on the contractions induced by histamine 30 seconds after administration of the test substance and on the contractions induced by the addition of histamine 10 minutes later are listed in the table.
# [5] = rats, 2 × 10^-5 mole/kg dose per os, one hour before ovalbumin challenge
# [6] = rats, 2 × 10^-5 mole/kg dose per os, one hour before challenge
SMILES,Minimum toxic dose (mice),inhibition at 10 µM [3],inhibition at 10 µM [4],"inhibition in vivo at 20 µmol/kg [1, 5]","inhibition in vivo at 20 µmol/kg [2, 6]",other results
N#CC1(c2ccccc2)CCN(CCCCC2Sc3ccccc3NC2=O)CC1 (centres unmarked) [Example 15],300 mg/kg,–,–,–,–,inhibition in vivo at 20 µmol/kg [1]: 30%; inhibition in vivo at 20 µmol/kg [2]: 10%
"O=C1Nc2ccccc2OC1CCCN1CCC(Cc2ccccc2)CC1 (centres unmarked) [Example 2, 2-[3-(4-benzylpiperidin-1-yl)-propyl]-2H-1,4-benzoxazine-3(4H)-one]",–,13%,54%,–,–,–
"O=C(c1ccc(F)cc1)C1CCN(C2Sc3ccccc3NC2=O)CC1 (centres unmarked) [Example 4, 2-[4-(4-fluorobenzoyl)-piperidin-1-yl]-2H-1,4-benzothiazine-3(4H)-one]",300 mg/kg,71%,0%,–,–,–
O=C1Nc2ccccc2OC1CCCCN1CCC(c2ccccc2)CC1 (centres unmarked) [Example 9],–,–,–,–,–,"in vitro (H1)-receptor antagonism, % inhibition of histamine-induced ileum contractions after 30 seconds (histamine-(H1)-receptor): 35%; in vitro (H1)-receptor antagonism, % inhibition of histamine-induced ileum contractions after 10 minutes (histamine-(H1)-receptor): 12%"
"S=C1Nc2ccccc2OC1CCCN1CCC(Cc2ccccc2)CC1 (centres unmarked) [Example 3, 2-[3-(4-benzylpiperidin-1-yl)-propyl]-2H-1,4-benzoxazine-3(4H)-thione]",300 mg/kg,17%,16%,–,–,–
"COc1ccc2c(c1)SC(CCCCN1CCC(C(=O)c3ccc(F)cc3)CC1)C(=O)N2 (centres unmarked) [Example 18, 7-methoxy-2-(4-[4-(4-fluorobenzoyl)-piperidin-1-yl]-butyl)-2H-1,4benzothiazine-3(4H)-one]",–,–,–,90%,50%,–
"O=C1Nc2ccccc2SC1CCCCN1CC=C(c2ccccc2)CC1 (centres unmarked) [Example 10, 2-[4-(4-phenyl-1,2,3,6-tetrahydropyridin-1-yl)-butyl]-2H-1,4-benzothiazine-3(4H)one]",300 mg/kg,30%,37%,55%,30%,–
O=C1Nc2ccccc2OC1CCCCN1CCC(O)(c2ccccc2)CC1 (centres unmarked) [Example 13],–,–,–,–,–,"in vitro (H1)-receptor antagonism, % inhibition of histamine-induced ileum contractions after 30 seconds (histamine-(H1)-receptor): 49%; in vitro (H1)-receptor antagonism, % inhibition of histamine-induced ileum contractions after 10 minutes (histamine-(H1)-receptor): 8%"
O=C1Nc2ccccc2SC1CCCCN1CCC(O)(c2ccccc2)CC1 (centres unmarked) [Example 11],–,–,–,45%,20%,–
"O=C1Nc2ccccc2SC1CCCCN1CCC(Nc2nc3ccccc3n2Cc2ccc(F)cc2)CC1 (centres unmarked) [Example 1, 2-{4-[4-(N-(1-(4-fluorophenylmethyl)-1H-benzimidazol-2-yl)-amino)-piperidin-1-yl]-butyl}-2H-1,4-benzothiazine-3(4H)-one]",–,52%,87%,85%,85%,–
O=C1Nc2ccccc2SC1N1CCC(Cc2ccccc2)CC1 (centres unmarked) [Example 16],> 300 mg/kg,70%,97%,–,–,–
O=C1Nc2ccc(Cl)cc2SC1CCCCN1CCC(Nc2nc3ccccc3n2Cc2ccc(F)cc2)CC1 (centres unmarked) [Example 20],–,–,–,20%,40%,–
O=C1Nc2ccccc2OC1CCCCN1CC=C(c2ccccc2)CC1 (centres unmarked) [Example 12],–,–,–,35%,20%,–
